Measured values published in patent publication US20050065208A1, “Benzofuranes and their use in the treatment of atrial fibrillation” (priority 2001, published 2005).
Where two headings read alike, the source gives them in different places.

What was measured:
[1] = target: T1, IK(Ado), adenosine activated K-current (Homo sapiens, UniProt P48544+P48549); parameters: key to Blocking activity on IK(Ado): Yes: The compound has been demonstrated to inhibit the particular current (reference within parenthesis).; No: The compound has been demonstrated to not inhibit the particular current (reference within parenthesis).; U: No data regarding interaction of the compound with the particular current has been found in the literature; settings: cited from earlier work; for Blocking activity on IK(Ado): Table 2, literature; for IC50: literature value, read-out: Inhibition of IK (Ado) Induced by Adenosine (IC50)
T1 construct: electrophysiology technique applied to cardiomyocyte cultures; endogenous in cells
T1 sequence (P48549 1-501): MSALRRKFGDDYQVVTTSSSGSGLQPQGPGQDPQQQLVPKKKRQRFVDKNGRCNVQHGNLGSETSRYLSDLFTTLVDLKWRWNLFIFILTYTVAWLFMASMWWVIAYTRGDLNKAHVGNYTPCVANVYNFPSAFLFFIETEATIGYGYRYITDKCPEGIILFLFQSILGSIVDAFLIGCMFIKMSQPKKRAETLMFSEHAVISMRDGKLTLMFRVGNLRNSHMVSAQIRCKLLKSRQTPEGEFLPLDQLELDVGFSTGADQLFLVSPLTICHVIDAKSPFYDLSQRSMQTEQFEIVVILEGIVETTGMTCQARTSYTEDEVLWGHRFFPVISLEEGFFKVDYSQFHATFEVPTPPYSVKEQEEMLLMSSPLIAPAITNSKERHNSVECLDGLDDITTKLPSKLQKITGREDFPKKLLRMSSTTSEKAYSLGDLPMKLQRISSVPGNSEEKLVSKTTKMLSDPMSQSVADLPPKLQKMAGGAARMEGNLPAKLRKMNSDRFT
T1 sequence (P48544 1-419): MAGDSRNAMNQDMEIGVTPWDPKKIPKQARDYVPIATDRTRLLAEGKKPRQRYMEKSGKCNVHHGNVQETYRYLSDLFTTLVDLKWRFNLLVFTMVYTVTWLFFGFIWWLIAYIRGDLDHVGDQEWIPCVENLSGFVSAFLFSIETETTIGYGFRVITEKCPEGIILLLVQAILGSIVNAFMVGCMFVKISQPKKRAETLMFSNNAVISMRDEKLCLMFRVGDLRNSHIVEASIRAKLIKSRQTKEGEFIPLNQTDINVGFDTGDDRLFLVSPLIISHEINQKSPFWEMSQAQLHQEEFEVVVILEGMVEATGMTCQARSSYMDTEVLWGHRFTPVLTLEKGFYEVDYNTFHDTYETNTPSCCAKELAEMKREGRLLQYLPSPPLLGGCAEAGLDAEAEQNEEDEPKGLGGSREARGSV

[2] = target: INa, depolarizing Na-current (Homo sapiens, UniProt Q14524); parameters: key: Yes: The compound has been demonstrated to inhibit the particular current (reference within parenthesis).; No: The compound has been demonstrated to not inhibit the particular current (reference within parenthesis).; U: No data regarding interaction of the compound with the particular current has been found in the literature; settings: Table 2, literature; cited from earlier work
[3] = test system: Ito, transient outward K-current; parameters: key: Yes: The compound has been demonstrated to inhibit the particular current (reference within parenthesis).; No: The compound has been demonstrated to not inhibit the particular current (reference within parenthesis).; U: No data regarding interaction of the compound with the particular current has been found in the literature; settings: Table 2, literature; cited from earlier work
[4] = target: IKs, slow component of the delayed rectifier K-current (Homo sapiens, UniProt P51787); parameters: key: Yes: The compound has been demonstrated to inhibit the particular current (reference within parenthesis).; No: The compound has been demonstrated to not inhibit the particular current (reference within parenthesis).; U: No data regarding interaction of the compound with the particular current has been found in the literature; settings: Table 2, literature; cited from earlier work
[5] = test system: IK1, inward rectifier K-current; parameters: key: Yes: The compound has been demonstrated to inhibit the particular current (reference within parenthesis).; No: The compound has been demonstrated to not inhibit the particular current (reference within parenthesis).; U: No data regarding interaction of the compound with the particular current has been found in the literature; settings: Table 2, literature; cited from earlier work
[6] = target: T2, IK(ACh), AcetylCholine activated K-current (Homo sapiens, UniProt P48544+P48549); parameters: key to Blocking activity on IK(ACh): Yes: The compound has been demonstrated to inhibit the particular current (reference within parenthesis).; No: The compound has been demonstrated to not inhibit the particular current (reference within parenthesis).; U: No data regarding interaction of the compound with the particular current has been found in the literature; settings: cited from earlier work; for Blocking activity on IK(ACh): Table 2, literature; for IC50: current induced by ACh or carbachol, literature value, read-out: Inhibition of IK (ACh) (Induced by ACh or Carbachol) (IC50)
T2 construct: electrophysiology technique applied to cardiomyocyte cultures; endogenous in cells
T2 sequence (P48549 1-501): T1 sequence (P48549 1-501)
T2 sequence (P48544 1-419): T1 sequence (P48544 1-419)

[7] = target: T3, IK(ATP), ATP-sensitive K-current (Homo sapiens, UniProt Q14654); parameters: key: Yes: The compound has been demonstrated to inhibit the particular current (reference within parenthesis).; No: The compound has been demonstrated to not inhibit the particular current (reference within parenthesis).; U: No data regarding interaction of the compound with the particular current has been found in the literature; settings: Table 2, literature; cited from earlier work
T3 construct: electrophysiology technique applied to cardiomyocyte cultures; endogenous in cells; current induced with dinitrophenole

[8] = target: T1, IK(Ado), adenosine activated K-current; assay: Voltage clamp on cardiomyocyte cultures: inhibition of adenosine-induced K-current; format: cell-based
Source text: (§1) In the present invention acute and chronic effects of various compounds have been investigated by using electrophysiology technique applied to cardiomyocyte cultures.
(§2) The inhibitory effects occur within seconds after induction of the current with ACh, Ado or dinitrophenole (DNP reduces intracellular ATP). The acute inhibitory effects caused by the compounds of the present invention on these K-currents in cardiac muscle tissue had not previously been discovered. The reasons for this include the fact that these ligand activated K-currents (IK(Ado), IK(ACh) and IK(ATP)) are preferentially active in the atrial cardiomyocytes (Workman A J et al. Cardiovasc Res 1999 September;43(4):974-84; Koumi S-I, and Wasserstorm A. American Journal of Physiology 266[35], H1812-H1821. 1994), while previous studies have been carried out with tissue from cardiac ventricles. Furthermore, IK(Ado) and IK(ACh) must first be induced via the M2 or A1 receptor (with ACh and Ado respectively) before any inhibition can be observed. Without any agonist at the extracellular site of the membrane these ligand-gated channels probably have only minor roles in shaping repolarization but, when activated by extracellular acetylcholine or adenosine, they can substantially shorten action potential duration in the atrium (Tristani-Firouzi M et al. Am J Med 2001 January; 110(1):50-9).
(§3) The following Table 1 illustrates the potency (IC50-values) of compounds of formulae I and II compared with other anti-arrhythmic drugs to inhibit the transmembrane currents IK(Ado) and IK(ACh) after stimulation of the currents with Adenosine or Acetylcholine (or Carbachol).

[9] = target: T2, IK(ACh), AcetylCholine activated K-current; assay: Voltage clamp on cardiomyocyte cultures: inhibition of K-current induced by ACh or carbachol; format: cell-based
Source text: as §1, §2, §3

INa, depolarizing Na-current, sequence (Q14524 whole entry): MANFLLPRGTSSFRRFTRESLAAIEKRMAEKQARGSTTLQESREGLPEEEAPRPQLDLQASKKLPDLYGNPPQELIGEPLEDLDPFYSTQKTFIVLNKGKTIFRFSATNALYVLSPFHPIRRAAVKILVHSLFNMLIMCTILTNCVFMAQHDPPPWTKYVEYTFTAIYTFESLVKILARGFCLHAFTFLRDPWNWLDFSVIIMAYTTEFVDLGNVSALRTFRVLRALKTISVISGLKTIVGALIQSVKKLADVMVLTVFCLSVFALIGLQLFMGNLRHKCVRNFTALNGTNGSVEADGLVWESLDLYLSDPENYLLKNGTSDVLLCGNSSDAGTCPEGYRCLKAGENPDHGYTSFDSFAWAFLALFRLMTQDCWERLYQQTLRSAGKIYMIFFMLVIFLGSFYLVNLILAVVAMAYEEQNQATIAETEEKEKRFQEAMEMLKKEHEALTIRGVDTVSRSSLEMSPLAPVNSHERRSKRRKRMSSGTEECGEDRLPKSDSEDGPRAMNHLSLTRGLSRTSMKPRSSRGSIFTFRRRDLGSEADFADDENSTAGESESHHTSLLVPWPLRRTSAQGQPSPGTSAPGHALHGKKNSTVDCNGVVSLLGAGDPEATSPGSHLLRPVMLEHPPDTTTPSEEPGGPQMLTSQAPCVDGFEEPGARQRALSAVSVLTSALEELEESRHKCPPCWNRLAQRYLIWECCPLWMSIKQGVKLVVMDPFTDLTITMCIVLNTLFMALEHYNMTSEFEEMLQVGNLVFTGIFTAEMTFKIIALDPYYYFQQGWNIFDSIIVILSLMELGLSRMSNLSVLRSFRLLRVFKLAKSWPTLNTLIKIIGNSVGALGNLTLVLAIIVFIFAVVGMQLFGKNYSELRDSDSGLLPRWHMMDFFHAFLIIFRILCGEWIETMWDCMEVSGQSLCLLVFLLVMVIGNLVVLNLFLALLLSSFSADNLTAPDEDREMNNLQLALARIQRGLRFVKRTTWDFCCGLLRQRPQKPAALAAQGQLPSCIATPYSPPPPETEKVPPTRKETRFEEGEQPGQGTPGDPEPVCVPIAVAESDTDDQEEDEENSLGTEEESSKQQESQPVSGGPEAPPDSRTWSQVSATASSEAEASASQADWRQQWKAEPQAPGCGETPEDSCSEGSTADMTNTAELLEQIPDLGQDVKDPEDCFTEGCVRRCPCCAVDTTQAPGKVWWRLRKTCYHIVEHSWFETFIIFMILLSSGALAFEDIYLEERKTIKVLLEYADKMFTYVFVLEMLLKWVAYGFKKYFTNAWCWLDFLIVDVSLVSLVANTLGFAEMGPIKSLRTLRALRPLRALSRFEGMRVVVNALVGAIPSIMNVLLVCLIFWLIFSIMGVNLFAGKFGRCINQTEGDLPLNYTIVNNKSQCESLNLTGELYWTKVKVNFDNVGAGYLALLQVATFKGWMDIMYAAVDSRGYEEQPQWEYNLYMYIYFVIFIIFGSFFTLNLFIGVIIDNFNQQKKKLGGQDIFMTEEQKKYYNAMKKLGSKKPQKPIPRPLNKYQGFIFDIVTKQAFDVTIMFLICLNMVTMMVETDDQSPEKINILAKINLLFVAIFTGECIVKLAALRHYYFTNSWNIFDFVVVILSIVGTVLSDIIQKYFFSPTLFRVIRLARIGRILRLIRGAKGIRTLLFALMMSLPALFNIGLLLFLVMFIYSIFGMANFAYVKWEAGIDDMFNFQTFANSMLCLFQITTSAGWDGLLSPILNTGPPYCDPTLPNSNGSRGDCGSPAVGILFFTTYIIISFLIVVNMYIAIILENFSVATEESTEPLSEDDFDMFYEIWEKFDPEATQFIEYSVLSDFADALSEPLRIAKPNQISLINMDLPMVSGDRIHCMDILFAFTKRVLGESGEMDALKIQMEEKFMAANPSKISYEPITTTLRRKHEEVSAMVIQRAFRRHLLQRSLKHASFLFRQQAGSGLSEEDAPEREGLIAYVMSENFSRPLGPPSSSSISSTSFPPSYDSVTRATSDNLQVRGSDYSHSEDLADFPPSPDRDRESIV
T3 sequence (Q14654 whole entry): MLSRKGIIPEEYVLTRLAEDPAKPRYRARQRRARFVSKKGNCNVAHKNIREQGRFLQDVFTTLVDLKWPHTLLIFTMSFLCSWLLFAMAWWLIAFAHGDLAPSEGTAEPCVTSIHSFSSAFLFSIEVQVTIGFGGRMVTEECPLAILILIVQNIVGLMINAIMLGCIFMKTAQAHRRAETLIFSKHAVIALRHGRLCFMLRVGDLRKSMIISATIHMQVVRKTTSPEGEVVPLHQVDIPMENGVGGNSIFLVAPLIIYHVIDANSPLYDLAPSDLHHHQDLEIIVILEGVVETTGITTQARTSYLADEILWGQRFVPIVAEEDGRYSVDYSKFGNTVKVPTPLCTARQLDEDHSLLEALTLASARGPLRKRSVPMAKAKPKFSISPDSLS
T3 sequence (O60706 whole entry partner): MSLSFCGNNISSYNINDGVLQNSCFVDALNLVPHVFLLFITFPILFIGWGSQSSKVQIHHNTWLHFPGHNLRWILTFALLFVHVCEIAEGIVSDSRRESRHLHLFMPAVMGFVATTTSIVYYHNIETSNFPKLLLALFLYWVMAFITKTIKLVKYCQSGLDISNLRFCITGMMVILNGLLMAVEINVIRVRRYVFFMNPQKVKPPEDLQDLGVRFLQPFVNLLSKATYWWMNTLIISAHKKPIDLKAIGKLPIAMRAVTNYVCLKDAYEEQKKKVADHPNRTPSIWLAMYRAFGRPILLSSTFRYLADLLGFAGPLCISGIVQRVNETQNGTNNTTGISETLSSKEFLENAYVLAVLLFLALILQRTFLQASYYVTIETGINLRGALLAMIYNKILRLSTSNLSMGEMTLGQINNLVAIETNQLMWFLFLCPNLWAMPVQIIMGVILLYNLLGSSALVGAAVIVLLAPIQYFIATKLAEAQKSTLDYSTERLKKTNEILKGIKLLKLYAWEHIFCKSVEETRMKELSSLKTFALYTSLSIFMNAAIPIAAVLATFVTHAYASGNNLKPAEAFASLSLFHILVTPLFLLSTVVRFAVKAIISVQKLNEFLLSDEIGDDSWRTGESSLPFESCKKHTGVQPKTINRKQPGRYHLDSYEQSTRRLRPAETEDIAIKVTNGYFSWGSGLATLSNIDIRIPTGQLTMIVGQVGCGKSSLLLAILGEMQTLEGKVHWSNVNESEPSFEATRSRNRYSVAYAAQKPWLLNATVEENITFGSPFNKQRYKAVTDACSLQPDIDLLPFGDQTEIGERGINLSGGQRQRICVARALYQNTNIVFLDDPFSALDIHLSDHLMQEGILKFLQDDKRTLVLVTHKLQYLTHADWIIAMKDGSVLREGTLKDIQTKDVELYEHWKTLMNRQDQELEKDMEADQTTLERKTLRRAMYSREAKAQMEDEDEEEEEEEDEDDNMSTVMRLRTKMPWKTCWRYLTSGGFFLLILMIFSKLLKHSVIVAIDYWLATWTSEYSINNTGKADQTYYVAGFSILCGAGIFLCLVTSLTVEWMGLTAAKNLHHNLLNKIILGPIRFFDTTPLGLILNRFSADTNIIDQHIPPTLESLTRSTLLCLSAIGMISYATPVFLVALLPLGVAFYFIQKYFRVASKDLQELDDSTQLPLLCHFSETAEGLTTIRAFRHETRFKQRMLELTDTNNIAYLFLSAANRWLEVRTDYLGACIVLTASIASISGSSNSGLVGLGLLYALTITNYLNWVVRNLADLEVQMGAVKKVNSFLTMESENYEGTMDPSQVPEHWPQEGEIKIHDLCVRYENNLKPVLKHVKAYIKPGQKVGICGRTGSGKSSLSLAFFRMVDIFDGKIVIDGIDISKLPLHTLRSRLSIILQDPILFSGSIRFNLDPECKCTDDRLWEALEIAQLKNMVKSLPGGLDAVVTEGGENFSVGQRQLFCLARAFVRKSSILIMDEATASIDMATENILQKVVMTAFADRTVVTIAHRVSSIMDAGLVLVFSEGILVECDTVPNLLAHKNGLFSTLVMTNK

Structure (SMILES) | Blocking activity on INa [2] | Blocking activity on Ito [3] | Blocking activity on IKs [4] | Blocking activity on IK1 [5] | Blocking activity on IK(ACh) [6] | IC50 [6] [nM] | Blocking activity on IK(ATP) [7] | also measured
CC(C)NCC(O)c1ccc(NS(C)(=O)=O)cc1 (racemic) [d,l-sotalol] | No | Yes | No | Yes | Yes (Mori) | 36000 | – | Blocking activity on IK(Ado) [1]: No; Inhibition of IK (Ado) Induced by Adenosine, in words ([1]; current induced by adenosine, literature): No effect
CCN(CC)CCCN(c1ccccc1)C1Cc2ccccc2C1 [Aprinidine] | Yes | Yes | No | No | Yes | 400 | – | –
CC(C)N(CCC(C(N)=O)(c1ccccc1)c1ccccn1)C(C)C (centres unmarked) [Disopyramide] | Yes | Yes | Yes | No | Yes | 1700 | Yes | –
CCCCc1oc2ccc(NS(C)(=O)=O)cc2c1C(=O)c1ccc(OCCCN(CCCC)CCCC)cc1 [Dronedarone] | Yes | – | Yes | – | Yes | 10 | – | –
Cc1oc2ccccc2c1C(=O)c1cc(I)c(O)c(I)c1 [Example E5, 2-methyl-3-(3,5-diiodo-4-hydroxy-benzoyl)benzofuran] | – | – | – | – | – | – | – | IC50 ([8]; current induced by adenosine): 1000 nM; IC50 ([9]; current induced by ACh or carbachol): 1000 nM
Cc1cccc(CCN2CCC(C(=O)c3ccc(NS(C)(=O)=O)cc3)CC2)n1 [Example E-4031] | – | – | – | – | – | 8000 | – | Inhibition of IK (Ado) Induced by Adenosine, effect at 100 μM ([1]; literature): Some effect at 100 μM
N[C@@H](Cc1cc(I)c(Oc2ccc(O)c(I)c2)c(I)c1)C(=O)O [Example T3, triiodthyronine] | – | – | – | – | – | – | – | Acute effects on IK(Ado) [8]: does not have acute effects; Acute effects on IK(ACh) [9]: does not have acute effects
O=C(NCC1CCCCN1)c1cc(OCC(F)(F)F)ccc1OCC(F)(F)F (centres unmarked) [Flecainide] | Yes | Yes | No | No | Yes | 3600 | Yes | –
Cn1c(NCCN(CCO)CCCc2ccc([N+](=O)[O-])cc2)cc(=O)n(C)c1=O [MS-551] | – | – | – | – | – | 11000 | – | Inhibition of IK (Ado) Induced by Adenosine, effect at 100 μM ([1]; literature): Some effect at 100 μM
CC(C)NCC(O)COc1cccc2ccccc12 (centres unmarked) [Propranolol] | – | – | – | – | – | 56000 | – | IC50 ([1]; current induced by adenosine): 8000 nM
C=C[C@H]1C[N@@]2CC[C@H]1C[C@@H]2[C@@H](O)c1ccnc2ccc(OC)cc12 [Quinidine] | Yes | Yes | No | No | Yes | 1600 | Yes | –
Cc1cccc(C)c1NC(=O)CC12CCCN1CCC2 [SUN 1165] | – | – | – | – | – | 29000 | – | –
COc1ccc(C2CCN(CC[C@H]3CCOc4ccccc43)CC2)cc1OC [Terikalant] | No | Yes | Yes | Yes | Yes | 2000 | No | Blocking activity on IK(Ado) [1]: Yes; IC50 ([1]; current induced by adenosine): 2000 nM
